Data published in patent US20110071158A1, “NEW COMPOUNDS” (BOEHRINGER INGELHEIM INTERNATIONAL GMBH, priority 2009, published 2011).

What follows are molecules tested against T1, PTK2 enzyme (Homo sapiens, UniProt Q05397) (assay: PTK2 enzyme test, Assay 1 (DELFIA, poly-Glu-Tyr substrate, antibody PT60)). Details: Assay 1 (values without *); 1 h pre-incubation, 2% DMSO.
T1 construct: purchased Invitrogen PV3832
T1 sequence (Q05397 whole entry): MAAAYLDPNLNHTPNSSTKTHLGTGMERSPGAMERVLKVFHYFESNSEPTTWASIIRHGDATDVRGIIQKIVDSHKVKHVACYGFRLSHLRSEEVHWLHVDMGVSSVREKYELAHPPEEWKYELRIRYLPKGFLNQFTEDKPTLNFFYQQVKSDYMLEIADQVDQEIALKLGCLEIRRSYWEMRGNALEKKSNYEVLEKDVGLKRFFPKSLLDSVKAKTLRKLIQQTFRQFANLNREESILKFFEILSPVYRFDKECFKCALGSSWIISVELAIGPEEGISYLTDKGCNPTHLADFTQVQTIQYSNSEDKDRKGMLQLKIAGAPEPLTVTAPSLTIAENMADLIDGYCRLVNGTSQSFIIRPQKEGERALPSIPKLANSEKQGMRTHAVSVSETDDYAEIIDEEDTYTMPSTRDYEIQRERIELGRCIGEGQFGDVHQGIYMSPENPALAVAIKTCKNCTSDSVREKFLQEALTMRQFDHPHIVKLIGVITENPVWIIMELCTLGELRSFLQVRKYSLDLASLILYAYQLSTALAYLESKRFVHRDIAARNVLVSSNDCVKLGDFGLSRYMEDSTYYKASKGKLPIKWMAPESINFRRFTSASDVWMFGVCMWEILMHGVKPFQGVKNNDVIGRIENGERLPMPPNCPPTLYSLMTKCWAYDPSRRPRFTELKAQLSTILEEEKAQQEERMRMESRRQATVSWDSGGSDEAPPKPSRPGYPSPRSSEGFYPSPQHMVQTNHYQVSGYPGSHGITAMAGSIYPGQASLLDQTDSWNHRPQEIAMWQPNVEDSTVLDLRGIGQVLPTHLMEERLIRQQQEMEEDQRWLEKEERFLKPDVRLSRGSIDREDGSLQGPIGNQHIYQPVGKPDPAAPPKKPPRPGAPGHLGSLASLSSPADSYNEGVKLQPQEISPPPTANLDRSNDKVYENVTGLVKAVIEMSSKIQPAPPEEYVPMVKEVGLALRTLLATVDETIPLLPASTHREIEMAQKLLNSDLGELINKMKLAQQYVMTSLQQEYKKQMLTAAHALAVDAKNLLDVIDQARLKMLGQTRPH
Assay type: biochemical
Method: This test uses active PTK2 enzyme (Invitrogen Code PV3832) and poly-Glu-Tyr (4:1, Sigma P-0275) as the kinase substrate. The kinase activity is detected through the phosphorylation of the substrate in a DELFIA™ assay. The phosphorylated substrate is detected with the europium-labelled phosphotyrosine antibody PT60 (Perkin Elmer, No.: AD00400).
In order to determine concentration-activity curves with PTK2-inhibitors the compounds are serially diluted in 10% DMSO/H2O and 10 μL of each dilution are placed in each well of a 96-well microtitre plate (clear plate with a U-shaped base, Greiner No. 650101) (the inhibitors are tested in duplicates) and mixed with 10 μL/well of PTK2 kinase (0.01 μg/well). PTK2 kinase has been correspondingly diluted beforehand with kinase dilution buffer (20 mM TRIS/HCl pH 7.5, 0.1 mM EDTA, 0.1 mM EGTA, 0.286 mM sodium orthovanadate, 10% glycerol with the addition of freshly prepared BSA (fraction V, 1 mg/mL) and DTT (1 mM)). The test compound and the PTK2 kinase are pre-incubated for 1 h at RT and shaken at 500 revolutions per min. The reaction is started by the addition of 10 μL/well poly (Glu,Tyr) substrate (25 μg/well poly (Glu, Tyr), 0.05 μg/well biotinylated poly (Glu,Tyr) dissolved in 250 mM TRIS/HCl pH 7.5, 9 mM DTT)—the final concentration of DMSO is 2%. Then 20 μL of ATP Mix (30 mM TRIS/HCl pH 7.5, 0.02% Brij, 0.2 mM sodium orthovanadate, 10 mM magnesium acetate, 0.1 mM EGTA, 1× phosphatase inhibitor cocktail 1 (Sigma, No.: P2850), 50 μM ATP (Sigma, No.: A3377; 15 mM stock solution)) are added. After 1 h of kinase reaction (the plates are shaken at 500 rpm), the reaction is stopped by the addition of 12 μL/well 100 mM EDTA, pH 8.0 and shaken for a further 5 min at RT (500 rpm). 55 μL of the reaction mixture are transferred into a streptavidin plate (Strepta Well High Bind (transparent, 96-well) made by Roche, No.: 11989685001) and incubated for 1 h at RT (shaking at 500 rpm). Then the microtitre plate is washed three times with 200 μL/well D-PBS (Invitrogen, No. 14190). 100 μL of a solution containing DELFIA Eu-N1 Anti-Phosphotyrosine PT60 antibody (Perkin Elmer, No.: AD0040, diluted 1:2000 in DELFIA test buffer (Perkin Elmer, No.: 1244-111)) is then added and the mixture is incubated for 1 h at RT (shaking at 500 rpm). Then the plate is washed three times with 200 μL/well DELFIA washing buffer (Perkin Elmer, No.: 1244-114), 200 μL/well strengthening solution (Perkin Elmer, No.: 1244-105) are added and the mixture is incubated for 10 min at RT (shaking at 300 rpm).
The time-delayed europium fluorescence is then measured in a microtitre plate reader (VICTOR^3, Perkin Elmer). […] Wells that contain test buffer instead of enzyme are used as a control of the background kinase activity.
The IC50 values are determined from analyses of the concentration activity by iterative calculation with the aid of a sigmoid curve analysis algorithm (FIFTY, based on Graph PAD Prism Version 3.03) with a variable Hill coefficient.
Work on CCC(=O)N[C@@H]1CCCC[C@H]1Nc1nc(Nc2ccc(C(=O)NC3CCN(C)CC3)cc2OC)ncc1C(F)(F)F [Example I-1, 3-methoxy-N-(1-methyl-piperidin-4-yl)-4-[4-((1R,2R)-2-propionylamino-cyclohexylamino)-5-trifluoromethyl-pyrimidin-2-ylamino]-benzamide] yielded an IC50 of 1 nM. Molecule COc1cc(C(=O)NC(C)C)ccc1Nc1ncc(C(F)(F)F)c(N[C@@H]2CCCC[C@H]2NC(C)=O)n1 [Example I-2, 4-[4-(2-acetylamino-cyclohexylamino)-5-trifluoromethyl-pyrimidin-2-ylamino]-N-isopropyl-3-methoxy-benzamide] has an IC50 of 3 nM. COCC(=O)N(C)[C@@H]1CCCC[C@H]1Nc1nc(Nc2ccc(C(=O)NC3CCN(C)CC3)cc2OC)ncc1C(F)(F)F [Example I-3, 3-methoxy-4-(4-{(1R,2R)-2-[(2-methoxy-acetyl)-methyl-amino]-cyclohexylamino}-5-trifluoromethyl-pyrimidin-2-ylamino)-N-(1-methyl-piperidin-4-yl)-benzamide] gave an IC50 of 10 nM. For COc1ccccc1Nc1ncc(Cl)c(N[C@@H]2CCCC[C@H]2NC(C)=O)n1 [Example I-4, N-{(1R,2R)-2-[5-chloro-2-(2-methoxy-phenylamino)-pyrimidin-4-ylamino]-cyclohexyl}-acetamide], the IC50 was 9 nM. In the case of COc1cc(C(=O)NC2CCN(C)CC2)ccc1Nc1ncc(C(F)(F)F)c(N[C@@H]2CCCC[C@@H]2NC(C)=O)n1 [Example I-5], the IC50 is reported as 19 nM. CNC(=O)c1ccc(Nc2ncc(C(F)(F)F)c(N[C@@H]3CCCC[C@H]3NC(C)=O)n2)c(OC)c1 [Example I-6] gave an IC50 of 4 nM. CCNC(=O)c1ccc(Nc2ncc(C(F)(F)F)c(N[C@@H]3CCCC[C@H]3NC(C)=O)n2)c(OC)c1 [Example I-7] was tested, and the IC50 was 3 nM. For CCN1CCC(NC(=O)c2ccc(Nc3ncc(C(F)(F)F)c(N[C@@H]4CCCC[C@H]4NC(C)=O)n3)c(OC)c2)CC1 [Example I-8], the IC50 was 2 nM. For COc1cc(C(=O)NC2CCCN(C)C2)ccc1Nc1ncc(C(F)(F)F)c(N[C@@H]2CCCC[C@H]2NC(C)=O)n1 (stereo partly drawn) [Example I-10], the IC50 was 3 nM. For COc1cc(C(=O)NC2CCN(C)CC2)ccc1Nc1ncc(C(F)(F)F)c(N[C@@H]2CCCC[C@H]2NC(C)=O)n1 [Example I-11], the IC50 was 2 nM. With COc1cc(C(=O)NC2CCN(C)CC2)ccc1Nc1ncc(C(F)(F)F)c(N[C@@H]2CCCC[C@H]2NC(=O)C(C)C)n1 [Example I-12] the IC50 was 3 nM. COc1cc(C(=O)N(C)C)ccc1Nc1ncc(C(F)(F)F)c(N[C@@H]2CCCC[C@H]2NC(C)=O)n1 [Example I-13] showed an IC50 of 18 nM. Work on COc1cc(C(=O)NC2CCN(C)CC2)ccc1Nc1ncc(C(F)(F)F)c(N[C@@H]2CCCC[C@H]2NC(=O)CC(C)C)n1 [Example I-14] yielded an IC50 of 32 nM. CCNC(=O)N[C@@H]1CCCC[C@H]1Nc1nc(Nc2ccc(C(=O)NC3CCN(C)CC3)cc2OC)ncc1C(F)(F)F [Example I-15] was tested, and the IC50 was 3 nM. With COc1cc(C(=O)NC2CCN(C)CC2)ccc1Nc1ncc(C(F)(F)F)c(N[C@@H]2CCCC[C@H]2NC(=O)C(C)(C)C)n1 [Example I-16] the IC50 was 4 nM. Molecule COc1cc(C(=O)NC2CCN(C)CC2)ccc1Nc1ncc(C(F)(F)F)c(N[C@@H]2CCCC[C@H]2NC(=O)CN(C)C)n1 [Example I-17] has an IC50 of 15 nM. With COc1cc(C(=O)NC2CCN(C)CC2)ccc1Nc1ncc(C(F)(F)F)c(N[C@@H]2CCCC[C@H]2NC(=O)NC(C)(C)C)n1 [Example I-18] the IC50 was 46 nM. Work on CCCC(=O)N[C@@H]1CCCC[C@H]1Nc1nc(Nc2ccc(C(=O)NC3CCN(C)CC3)cc2OC)ncc1C(F)(F)F [Example I-19] yielded an IC50 of 4 nM. For COc1cc(C(=O)NC2CCN(C)CC2)ccc1Nc1ncc(C(F)(F)F)c(N[C@@H]2CCCC[C@H]2NC(=O)C2CC2)n1 [Example I-20], the IC50 was 1 nM. With COCC(=O)N[C@@H]1CCCC[C@H]1Nc1nc(Nc2ccc(C(=O)NC3CCN(C)CC3)cc2OC)ncc1C(F)(F)F [Example I-21] the IC50 was 4 nM. COc1cc(C(=O)NC2CCN(C)CC2)ccc1Nc1ncc(C(F)(F)F)c(N[C@@H]2CCCC[C@H]2NC(=O)C2CCCC2)n1 [Example I-22] showed an IC50 of 15 nM. COc1cc(C(=O)NC2CCN(C)CC2)ccc1Nc1ncc(C(F)(F)F)c(N[C@@H]2CCCC[C@H]2NC(=O)C2CCC2)n1 [Example I-23] showed an IC50 of 3 nM. With CCN(CC)C(=O)CN[C@@H]1CCCC[C@H]1Nc1nc(Nc2ccc(C(=O)NC3CCN(C)CC3)cc2OC)ncc1C(F)(F)F [Example I-24] the IC50 was 24 nM. For CCN(CC)C(=O)CN[C@@H]1CCCC[C@H]1Nc1nc(Nc2cc(F)c(C(=O)NC3CCN(C)CC3)cc2OC)ncc1C(F)(F)F [Example I-25], the IC50 was 24 nM. Work on COc1cc(C(=O)NC2CCN(C)CC2)ccc1Nc1ncc(C(F)(F)F)c(N[C@@H]2CCCC[C@H]2NCC(=O)N(C)OC)n1 [Example I-26] yielded an IC50 of 23 nM. With COc1cc(C(=O)NC2CCN(C)CC2)c(F)cc1Nc1ncc(C(F)(F)F)c(N[C@@H]2CCCC[C@H]2NCC(=O)N(C)OC)n1 [Example I-27] the IC50 was 6 nM. COc1cc(N2CCN(C)CC2)ccc1Nc1ncc(C(F)(F)F)c(N[C@@H]2CCCC[C@H]2NC(C)=O)n1 [Example I-29] was tested, and the IC50 was 1 nM. With COc1cc(N2CCN(C)CC2)ccc1Nc1ncc(C(F)(F)F)c(N[C@@H]2CCCC[C@H]2NC(=O)C(C)C)n1 [Example I-30] the IC50 was 5 nM. For COCC(=O)N[C@@H]1CCCC[C@H]1Nc1nc(Nc2ccc(N3CCN(C)CC3)cc2OC)ncc1C(F)(F)F [Example I-31], the IC50 was 5 nM. COc1cc(N2CCN(C)CC2)ccc1Nc1ncc(C(F)(F)F)c(N[C@@H]2CCCC[C@H]2NC(=O)CN(C)C)n1 [Example I-32] was tested, and the IC50 was 21 nM. COc1cc(N2CCN(C)CC2)ccc1Nc1ncc(C(F)(F)F)c(N[C@@H]2CCCC[C@H]2NC(=O)CC(C)C)n1 [Example I-33] showed an IC50 of 70 nM. Work on COc1cc(C(=O)NC2CCN(C)CC2)ccc1Nc1ncc(C(F)(F)F)c(N[C@@H]2CCCC[C@H]2N(C)C)n1 [Example I-34] yielded an IC50 of 71 nM. COc1cc(C(=O)NC2CCN(C)CC2)ccc1Nc1ncc(C(F)(F)F)c(N[C@H]2CCCC[C@@H]2NC(C)=O)n1 [Example I-35] showed an IC50 of 81 nM. Molecule COc1cc(C(=O)NC2CCOCC2)ccc1Nc1ncc(C(F)(F)F)c(N[C@H]2CCCC[C@@H]2NC(C)=O)n1 [Example I-36] has an IC50 of 400 nM. COc1cc(C(=O)NC2CCCN(C)C2)ccc1Nc1ncc(C(F)(F)F)c(N[C@H]2CCCC[C@@H]2NC(C)=O)n1 (stereo partly drawn) [Example I-37] gave an IC50 of 400 nM. For CCN1CCC(NC(=O)c2ccc(Nc3ncc(C(F)(F)F)c(N[C@H]4CCCC[C@@H]4NC(C)=O)n3)c(OC)c2)CC1 [Example I-38], the IC50 was 400 nM. CNC(=O)c1ccc(Nc2ncc(C(F)(F)F)c(N[C@@H]3CCCC[C@H]3NC(C)=O)n2)c(OC)c1 [Example I-39] was tested, and the IC50 was 2 nM. COc1cc(C(=O)NC2CCCN(C)C2)ccc1Nc1ncc(C(F)(F)F)c(N[C@@H]2CCCC[C@H]2NC(C)=O)n1 (stereo partly drawn) [Example I-41] gave an IC50 of 2 nM. Work on COc1cc(C(=O)NC2CCOCC2)ccc1Nc1ncc(Br)c(N[C@@H]2CCCC[C@H]2NC(C)=O)n1 [Example I-44] yielded an IC50 of 2 nM. With COc1cc(C(=O)NC2CCCN(C)C2)ccc1Nc1ncc(Br)c(N[C@@H]2CCCC[C@H]2NC(C)=O)n1 (stereo partly drawn) [Example I-45] the IC50 was 1 nM. CNC(=O)c1ccc(Nc2ncc(Br)c(N[C@@H]3CCCC[C@H]3NC(C)=O)n2)c(OC)c1 [Example I-46] was tested, and the IC50 was 2 nM. For COc1cc(C(=O)NCCN(C)C)ccc1Nc1ncc(Br)c(N[C@@H]2CCCC[C@H]2NC(C)=O)n1 [Example I-47], the IC50 was 0.96 nM. In the case of CCNC(=O)c1ccc(Nc2ncc(Br)c(N[C@@H]3CCCC[C@H]3NC(C)=O)n2)c(OC)c1 [Example I-48], the IC50 is reported as 2 nM. With COc1cc(C(=O)N(C)C)ccc1Nc1ncc(Br)c(N[C@@H]2CCCC[C@H]2NC(C)=O)n1 [Example I-49] the IC50 was 10 nM. Work on COc1cc(C(=O)NC2CCN(C)CC2)ccc1Nc1ncc(Br)c(N[C@@H]2CCCC[C@H]2NC(C)=O)n1 [Example I-50] yielded an IC50 of 1 nM.
